Data published in article PMC10385664, “Projection of Target Drug Particle Size in Oral Formulations Using the Refined Developability Classification System (rDCS)” (Pharmaceutics, 2023).

Test system: Caco-2 cells
Assay: Caco-2 permeability assay (pH 6.5/7.4 gradient, ± elacridar)
Conditions: Caco-2, 10 µM, apical pH 6.5 / basolateral pH 7.4, 120 min, without inhibitor
Description: In vitro permeability studies were performed at Cyprotex Discovery Ltd. (Macclesfield, UK) using a high-throughput Caco-2 permeability assay. Permeability at 37 °C was assessed from the apical to basolateral side (A⟹B) and in opposite direction (B⟹A) applying a pH gradient with pH 6.5 in the apical and pH 7.4 in the basolateral compartment (Hanks Balanced Salt Solution, HBSS). After an incubation of 120 min, samples were diluted for analysis via liquid chromatography coupled with tandem mass spectrometry (LC-MS/MS). […] Experiments were performed in absence and presence of the P-glycoprotein (P-gp) inhibitor elacridar (10 µM) to study transporter-mediated efflux effects. The dosing solutions contained the API (10 µM) in HBSS, and DMSO in a concentration of ≤1% v/v. Lucifer yellow (100 µM) was included as fluorescent integrity marker. Further experimental details are provided in Supplementary Materials.
The apparent permeability coefficients (Papp) were calculated according to Equation (27):(27) Papp=dQ/dt/C0·A where dQ/dt is the permeation rate of the API across the cell monolayer, C0 is the starting concentration of the API in the dosing solution and A is the surface area of the cell monolayer. The efflux ratios (ERs) were calculated from the B⟹A and A⟹B Papp values to estimate whether P-gp mediated efflux was involved in the transport of the APIs. The mass balance (% recovery) was calculated from the sum of the API recovered from the acceptor and donor compartments at the end of the experiment, divided by the initial donor amount.
Table S6. Gradient of the UPLC method for analysis of lemborexant.
Table S7. Gradient of the UPLC method for analysis of istradefylline.
S.2.5. rDCS Standard Investigations: Caco‐2 permeability studies
Caco‐2 cells were obtained from the American Type Culture Collection (ATCC, Manassas, VA, USA) and used between passage numbers 40 to 60. The cells were seeded onto Millipore Multiscreen Transwell plates at a density of 1 x 10^5 cells/cm2 and cultured in Dulbeccoʹs Modified Eagleʹs Medium (DMEM). The medium was changed every two or three days. Ce l l culture was carried out at 37 °C in an atmosphere of 5 % CO2 with a relative humidity of 95 %. The permeability assay was performed on day 20.
In vitro permeability was assessed wit h a high‐throughput Caco‐2 permeability assay. The assay was prepared by rinsing apical and basolateral monolayer surfaces twice with Hanks Balanced Salt Solution (HBSS) at the desired pH and 37 °C. Subsequently, cells in the apical and basolateral compartments were incubated with HBSS at the desired pH for 40 min. A pH gradient with pH 6.5 in the apical compartment and pH 7.4 in the basolateral compartment was applied. Dosing solutions containing the API (10 μ M) were prepared by diluting a concentrated API solution in DMS O with HBSS. The final DMSO concentration was ≤ 1% v/v. Lucifer yellow (100 μM) was included in the dosing solution as fluorescent integrity marker. For the assessment of the permeability from the apical to basolateral side (A⟹B), HBSS in the apical compartment was replaced with the dosing solution. The apical inserts were placed into a companion plat e containing fresh buffer with 1% v/ v DMSO. For the assessment of the permeability from the basolateral to […]
apical side (B⟹A), HBSS was removed from the companion plate and replaced with the solution of drug in HBSS. Fresh HBSS was added to the apical insert, which was then placed into the companion plate.
Experiments were performed in absence and presence of the P‐glycoprotein (P‐gp) inhibitor elacridar (10 μM) to study transporter‐mediated efflux effects. In those experiments, elacridar was included in both compartments during the equilibration time and assay. The starting concentration (C0) was confirmed by sampling from the dosing solution immediately before dosing into the cell pl ates. After incubation of 120 minutes, the apical inserts and companion plates were separated for sampling from both compartments.

Structure (SMILES): CC(C)NCC(O)COc1cccc2ccccc12 (stereo not shown) [propranolol]
- Papp(A⟹B): 13.0 ± 0.7 ×10^−6 cm/s
